# Assay results as given in patent publication US12491252B2, “Substituted 3-amino-5-phenylbenzamide compounds as covalent inhibitors of enhancer zeste homolog 2 (EZH2) and proteolysis-targeting chimeric derivatives thereof (PROTACs) that induce degradation of EZH2” (Northwestern University, priority 2021, dated 2025).
# Legend:
# EZH2 [1] = target: T1, EZH2 (Homo sapiens, UniProt Q15910); experiment: Western blot of EZH2 protein in C4-2B cells; conditions: for Degrading EZH2 protein: FIG. 5, 24 or 48 hours; for Degradation of EZH2: FIG. 14, 10 μM for 6 days
# T1 sequence (Q15910 whole entry): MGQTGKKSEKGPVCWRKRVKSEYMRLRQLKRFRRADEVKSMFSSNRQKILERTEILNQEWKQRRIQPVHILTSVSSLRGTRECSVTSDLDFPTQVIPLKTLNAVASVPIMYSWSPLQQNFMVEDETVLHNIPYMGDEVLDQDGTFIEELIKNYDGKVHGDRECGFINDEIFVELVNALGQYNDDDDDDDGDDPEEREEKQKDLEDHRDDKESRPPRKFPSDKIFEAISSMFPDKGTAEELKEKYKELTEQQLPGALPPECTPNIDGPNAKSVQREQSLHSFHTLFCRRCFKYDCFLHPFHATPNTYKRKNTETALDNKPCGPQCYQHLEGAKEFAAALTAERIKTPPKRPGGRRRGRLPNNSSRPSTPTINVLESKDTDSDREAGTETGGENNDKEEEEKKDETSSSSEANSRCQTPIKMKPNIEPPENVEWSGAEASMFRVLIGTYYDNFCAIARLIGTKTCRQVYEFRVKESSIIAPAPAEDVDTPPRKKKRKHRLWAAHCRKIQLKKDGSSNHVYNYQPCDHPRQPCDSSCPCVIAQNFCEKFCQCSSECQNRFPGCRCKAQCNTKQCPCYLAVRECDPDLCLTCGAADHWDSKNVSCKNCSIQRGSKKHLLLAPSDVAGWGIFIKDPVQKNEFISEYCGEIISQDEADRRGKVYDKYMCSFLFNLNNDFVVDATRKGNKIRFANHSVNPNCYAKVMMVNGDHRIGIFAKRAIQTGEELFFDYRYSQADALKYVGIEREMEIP
# T1 sequence (Q15022 whole entry partner): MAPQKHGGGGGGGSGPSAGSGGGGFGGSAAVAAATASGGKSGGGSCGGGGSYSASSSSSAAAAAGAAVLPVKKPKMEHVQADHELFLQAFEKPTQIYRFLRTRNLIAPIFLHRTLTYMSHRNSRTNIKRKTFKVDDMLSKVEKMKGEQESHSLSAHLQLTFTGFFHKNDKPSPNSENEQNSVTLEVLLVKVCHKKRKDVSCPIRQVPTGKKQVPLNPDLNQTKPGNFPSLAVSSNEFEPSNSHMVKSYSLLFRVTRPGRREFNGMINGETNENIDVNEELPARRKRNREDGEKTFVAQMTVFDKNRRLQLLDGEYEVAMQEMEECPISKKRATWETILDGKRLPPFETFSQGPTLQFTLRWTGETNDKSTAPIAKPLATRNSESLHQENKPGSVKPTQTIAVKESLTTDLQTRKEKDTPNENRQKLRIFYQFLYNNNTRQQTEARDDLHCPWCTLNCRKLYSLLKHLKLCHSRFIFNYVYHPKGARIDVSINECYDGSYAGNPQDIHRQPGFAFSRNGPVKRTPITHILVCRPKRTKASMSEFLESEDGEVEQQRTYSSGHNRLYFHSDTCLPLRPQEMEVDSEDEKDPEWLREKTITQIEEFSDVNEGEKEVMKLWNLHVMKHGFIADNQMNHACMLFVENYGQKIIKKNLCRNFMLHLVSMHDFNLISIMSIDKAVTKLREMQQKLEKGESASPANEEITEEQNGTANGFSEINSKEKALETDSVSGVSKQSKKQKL
# T1 sequence (O75530 whole entry partner): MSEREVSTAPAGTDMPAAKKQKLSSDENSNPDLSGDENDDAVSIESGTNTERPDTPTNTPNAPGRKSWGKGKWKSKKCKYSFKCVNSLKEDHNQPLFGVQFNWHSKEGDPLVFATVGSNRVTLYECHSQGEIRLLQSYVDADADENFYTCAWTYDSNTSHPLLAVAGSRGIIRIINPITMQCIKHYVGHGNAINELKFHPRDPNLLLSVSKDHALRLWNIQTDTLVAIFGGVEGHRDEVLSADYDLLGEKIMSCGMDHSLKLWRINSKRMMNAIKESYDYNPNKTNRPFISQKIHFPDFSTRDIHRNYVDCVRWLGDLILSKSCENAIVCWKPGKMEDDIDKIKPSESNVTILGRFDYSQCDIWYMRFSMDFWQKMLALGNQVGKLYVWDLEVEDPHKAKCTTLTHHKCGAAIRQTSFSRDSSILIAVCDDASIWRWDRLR
# [2] = Pharmacokinetics in mice, IP cassette dosing, plasma LC/MS/MS; assay type: in vivo, C57Bl/6 mouse; conditions: mouse, C57Bl/6 mice, 4 mg/kg IP, cassette format
# Description: FIG. 35. Pharmacokinetics of indicated compounds. Compounds were administered to C57Bl/6 mouse mice at 4 mg/kg using intraperitoneal (IP) injection in cassette format. Plasma was collected at the indicated time points and analyzed by LC/MS/MS using standard methods.
# For assessing pharmacokinetics, compounds were administered to C57Bl/6 mouse mice at 4 mg/kg using intraperitoneal (IP) injection in cassette format. Plasma was collected at the indicated time points and analyzed by LC/MS/MS using standard methods.
# H3K27me3 = experiment: Western blot of H3K27me3 levels in C4-2B cells; assay type: cell-based; conditions: FIG. 14, 10 μM for 6 days
# SUZ12 = experiment: Western blot of SUZ12 in C4-2B cells; assay type: cell-based; conditions: FIG. 14, 10 μM for 6 days
# LNCaP cells [3] = experiment: Colony assay using LnCaP cells; assay type: cell-based; conditions: FIG. 17B, treatment for 7 days
# Description: (§1) FIG. 17A-17B. (FIG. 17A) Live imaging cell proliferation of LNCaP cells. Cells were treated with indicated compounds and monitored over 168 hours for proliferation by phase object confluence. DMSO is set as the negative control. […] (FIG. 17B) Colony assays using LnCaP cells after treatment with the indicated compounds for 7 days.
# C4-2B cells [4] = experiment: Imaging of C4-2B cells (cell density); assay type: cell-based; conditions: FIG. 21, 12 days' treatment
# From the text: FIG. 21. Imaging of C4-2B cells after 12 days' treatment with the indicated compounds.
# EZH2 [5] = target: T1, EZH2; experiment: Western blot of EZH2 protein in PC3 cells; conditions: FIG. 26, 6 days treatment
# From the text: (Upper right western blot) Western blot analysis of EZH2 protein in PC3 cells after 6 days treatment.
# LNCaP cells [6] = experiment: Imaging of LnCaP cells (cell density); assay type: cell-based; conditions: FIG. 18, 12 days' treatment
# From the text: FIG. 18. Imaging of LnCaP cells after 12 days' treatment with the indicated compounds.
# C4-2B cells [7] = experiment: Colony assay using C4-2B cells; assay type: cell-based; conditions: FIG. 20B, treatment for 7 days
# Description: as §1, with “20A-20B.” for “17A-17B.”, “20A)” for “17A)”, “C4-2B” for “LNCaP”, “20B)” for “17B)”, “C4-2B” for “LnCaP”
# LNCaP cells [8] = experiment: Live imaging cell proliferation of LNCaP cells; assay type: cell-based; conditions: FIG. 17A, monitored over 168 hours
# From the text: FIG. 17A-17B. (FIG. 17A) Live imaging cell proliferation of LNCaP cells. […] DMSO is set as the negative control. […] (FIG. 17B) Colony assays using LnCaP cells after treatment with the indicated compounds for 7 days.
# C4-2B cells [9] = experiment: Live imaging cell proliferation of C4-2B cells; assay type: cell-based; conditions: FIG. 20A, monitored over 168 hours
# From the text: FIG. 20A-20B. (FIG. 20A) Live imaging cell proliferation of C4-2B cells. […] DMSO is set as the negative control. […] (FIG. 20B) Colony assays using C4-2B cells after treatment with the indicated compounds for 7 days.
# EZH2 [10] = target: T1, EZH2; experiment: Western blot of EZH2 protein in DU-145 cells; conditions: FIG. 27, 6 days treatment
# From the text: (Upper right western blot) Western blot analysis of EZH2 protein in DU-145 cells after 6 days treatment.
# EZH2 [11] = target: T1, EZH2; experiment: Western blot of EZH2 with esiRNA knockdown of VHL or siRNA control; assay type: cell-based; conditions: FIG. 16; siRNA control lane; duplicate
# Description: FIG. 16. Cells were treated with indicated compounds with either esiRNA knockdown of VHL or siRNA control (no EZH2 knockdown) and blotted for EZH2 and VHL. […] Experiment was run in duplicate with both replicates shown on the left and right sides.
# [12] = FIG. 7, 24 hours, 5 μM or 10 μM MG132
# [13] = FIG. 1, increasing doses 24 or 48 hours, or 0.5 μM over a time course
smiles,measurement,setting,value
CCN(c1cc(-c2ccc(CN3CCN(C(=O)CCCCCCCCC(=O)N[C@H](C(=O)N4C[C@H](O)C[C@H]4C(=O)NCc4ccc(-c5scnc5C)cc4)C(C)(C)C)CC3)cc2)cc(C(=O)NCc2c(C)cc(C)[nH]c2=O)c1C)C1CCOCC1 [Compound 6271],Restoration of EZH2 by proteasome inhibitor MG132,"EZH2 [1]; FIG. 11, 24 hours, 10 μM MG132",restored EZH2
"CCN(c1cc(-c2ccc(CN3CCN(C(=O)CCCCCCCCCCC(=O)N[C@H](C(=O)N4C[C@H](O)C[C@@H]4C(=O)NCc4ccc(-c5scnc5C)cc4)C(C)(C)C)CC3)cc2)cc(C(=O)NCc2c(C)cc(C)[nH]c2=O)c1C)C1CCOCC1 [Compound 2304, (2R,4R)-1-[(2S)-2-(12-{4-[(3′-{[(4,6-dimethyl-2-oxo-1,2-dihydropyridin-3-yl)methyl]carbamoyl}-5′-[ethyl(oxan-4-yl)amino]-4′-methyl-[1,1′-biphenyl]-4-yl)methyl]piperazin-1-yl}-12-oxododecanamido)-3,3-dimethylbutanoyl]-4-hydroxy-N-{[4-(4-methyl-1,3-thiazol-5-yl)phenyl]methyl}pyrrolidine-2-carboxamide]","EZH2 degradation, comparison within a list of VHL-PROTAC","EZH2 [1]; FIG. 4, 24 hours",most effective
same,Degrading EZH2 protein,EZH2 [1],effective in degrading EZH2 protein
same,"Degrading EZH2 protein, 2304 versus 2305","EZH2 [1]; FIG. 6, 24 or 48 hours",more effective than 2305
same,Restoration of EZH2 by proteasome inhibitor MG132,EZH2 [1]; [12],restored EZH2
same,Restoration of EZH2 by proteasome inhibitor MG132,"EZH2 [1]; FIG. 11, 24 hours, 10 μM MG132",restored EZH2
same,Degradation of EZH2,EZH2 [1],strong degradation of EZH2
same,EZH2 protein levels (western blot),"EZH2 [1]; FIG. 28, 24 hours",significant reduction in EZH2
same,half-life,[2],3.5 to 6 h
same,H3K27me3 levels,H3K27me3,reduced H3K27me3 levels
same,Reduction of PRC2 component SUZ12,SUZ12,reduction of PRC2 component SUZ12
"Cc1cc(C)c(CNC(=O)c2cc(-c3ccc(N4CCN(CCNC(=O)CC56CC7CC(CC(C7)C5)C6)CC4)nc3)cc3c2cnn3C(C)C)c(=O)[nH]1 [MS1943, reference compound]",Ability to degrade EZH2 at 0.5 μM,"EZH2 [1]; FIG. 28, 24 hours, 0.5 μM",no ability to degrade EZH2
CCN(c1cc(-c2ccc(CN3CCN(CCCCCCCCCCCC(=O)N[C@H](C(=O)N4C[C@@H](O)C[C@H]4C(=O)NCc4ccc(-c5scnc5C)cc4)C(C)(C)C)CC3)cc2)cc(C(=O)NCc2c(C)cc(C)[nH]c2=O)c1C)C1CCOCC1 [Compound 6300],Colonies,LNCaP cells [3],attenuated anti-proliferative effects
same,Cell density by imaging,C4-2B cells [4],attenuated anti-proliferative effects
same,EZH2 protein (western blot),EZH2 [5],no changes
same,Degradation of EZH2,EZH2 [1],no ability to degrade EZH2
same,Cell density by imaging,LNCaP cells [6],attenuated anti-proliferative effects
same,Colonies,C4-2B cells [7],attenuated anti-proliferative effects
same,Cell proliferation by phase object confluence,LNCaP cells [8],limited ability to inhibit cell proliferation
same,Cell proliferation by phase object confluence,C4-2B cells [9],limited ability to inhibit cell proliferation
same,EZH2 protein (western blot),EZH2 [10],no changes
CCN(c1cc(-c2ccc(CN3CCOCC3)cc2)cc(C(=O)NCc2c(C)cc(C)[nH]c2=O)c1C)C1CCN(C(=O)CCCCCCCCCCCCCCC(=O)NCCOc2cccc3c2C(=O)N(C2CCC(=O)NC2=O)C3=O)CC1 (stereo not drawn) [Compound 2100],EZH2 protein levels (western blot),"EZH2 [1]; FIG. 28, 24 hours",reduce EZH2 protein levels
CCN(c1cc(-c2ccc(CN3CCN(C(=O)CCCCCCCCCCC(=O)N[C@H](C(=O)N4C[C@@H](O)C[C@H]4C(=O)NCc4ccc(-c5scnc5C)cc4)C(C)(C)C)CC3)cc2)cc(C(=O)NCc2c(C)cc(C)[nH]c2=O)c1C)C1CCOCC1 [Compound 6285],Degradation of EZH2,EZH2 [1],no ability to degrade EZH2
CCN(c1cc(-c2ccc(CN3CCN(C(=O)CCCCCCCCCCCC(=O)N[C@H](C(=O)N4C[C@H](O)C[C@H]4C(=O)NCc4ccc(-c5scnc5C)cc4)C(C)(C)C)CC3)cc2)cc(C(=O)NCc2c(C)cc(C)[nH]c2=O)c1C)C1CCOCC1 [Compound 6273],Restoration of EZH2 by proteasome inhibitor MG132,"EZH2 [1]; FIG. 11, 24 hours, 10 μM MG132",restored EZH2
CCN(c1cc(-c2ccc(CN3CCOCC3)cc2)cc(C(=O)NCc2c(C)cc(C)[nH]c2=O)c1C)C1CCN(C(=O)CCCCCCCCCCC(=O)NCCOc2cccc3c2C(=O)N(C2CCC(=O)NC2=O)C3=O)CC1 (stereo not drawn) [Compound 2099],EZH2 protein levels (western blot),"EZH2 [1]; FIG. 28, 24 hours",reduce EZH2 protein levels
CCN(c1cc(-c2ccc(CN3CCN(C(=O)CCCCCCCCCCCCCCC(=O)N[C@H](C(=O)N4C[C@@H](O)C[C@H]4C(=O)NCc4ccc(-c5scnc5C)cc4)C(C)(C)C)CC3)cc2)cc(C(=O)NCc2c(C)cc(C)[nH]c2=O)c1C)C1CCOCC1 [Compound 3571],EZH2 protein levels (western blot),EZH2 [1]; [13],inactive
same,"Degrading EZH2 protein, versus 2305","EZH2 [1]; FIG. 12, 24 hours",less effective than 2305
CCN(c1cc(-c2ccc(N3CCN(C(=O)CCC(=O)NCCCC(=O)NCCCC(=O)NCCCOc4cccc5c4C(=O)N(C4CCC(=O)NC4=O)C5=O)CC3)cc2)cc(C(=O)NCc2c(C)cc(C)[nH]c2=O)c1C)C1CCOCC1 (stereo not drawn) [Compound 2190],EZH2 protein levels (western blot),"EZH2 [1]; FIG. 28, 24 hours",reduce EZH2 protein levels
CCN(c1cc(-c2ccc(CN3CCN(C(=O)CCCCCCCCCC(=O)N[C@H](C(=O)N4C[C@@H](O)C[C@H]4C(=O)NCc4ccc(-c5scnc5C)cc4)C(C)(C)C)CC3)cc2)cc(C(=O)NCc2c(C)cc(C)[nH]c2=O)c1C)C1CCOCC1 [Compound 6286],Ability to degrade EZH2 with siRNA control (VHL present),EZH2 [11],inactive control
same,Colonies,LNCaP cells [3],attenuated anti-proliferative effects
same,Cell density by imaging,C4-2B cells [4],attenuated anti-proliferative effects
same,EZH2 protein (western blot),EZH2 [5],no changes
same,Degradation of EZH2,EZH2 [1],no ability to degrade EZH2
same,Cell density by imaging,LNCaP cells [6],attenuated anti-proliferative effects
same,Colonies,C4-2B cells [7],attenuated anti-proliferative effects
same,Cell proliferation by phase object confluence,LNCaP cells [8],limited ability to inhibit cell proliferation
same,Cell proliferation by phase object confluence,C4-2B cells [9],limited ability to inhibit cell proliferation
same,EZH2 protein (western blot),EZH2 [10],no changes
CCN(c1cc(-c2ccc(CN3CCN(C(=O)CCCCCCCCCCCCCCC(=O)N[C@H](C(=O)C4C[C@H](O)C[C@H]4C(=O)NCc4ccc(-c5scnc5C)cc4)C(C)(C)C)CC3)cc2)cc(C(=O)NCc2c(C)cc(C)[nH]c2=O)c1C)C1CCOCC1 (stereo partly drawn) [Compound 2305],EZH2 protein levels (western blot),EZH2 [1]; [13],decreases EZH2 protein levels
same,Rescue of EZH2 protein degradation by proteasome inhibitor MG132,"EZH2 [1]; FIG. 2, 5 μM compound with or without MG132",can be rescued by proteasome inhibitor MG132
same,Degrading EZH2 protein,EZH2 [1],effective in degrading EZH2 protein
same,Restoration of EZH2 by proteasome inhibitor MG132,EZH2 [1]; [12],restored EZH2
same,EZH2 protein levels (western blot),"EZH2 [1]; FIG. 28, 24 hours",significant reduction in EZH2
same,half-life,[2],3.5 to 6 h
CCN(c1cc(-c2ccc(CN3CCN(C(=O)COCC(=O)NCCCC(=O)NCCOc4cccc5c4C(=O)N(C4CCC(=O)NC4=O)C5=O)CC3)cc2)cc(C(=O)NCc2c(C)cc(C)[nH]c2=O)c1C)C1CCOCC1 (stereo not drawn) [Compound 2186],EZH2 protein levels (western blot),"EZH2 [1]; FIG. 28, 24 hours",inactive at degrading EZH2
